Target: T1, human γD-crystallin protein (Homo sapiens, UniProt P07320)
T1 construct: 6xHis (N); made in house; host or cells: E. coli (M15pRep; TAM 1 is also named as an expression line); pQe1 plasmids from the King Labs, MIT
T1 sequence (P07320 1-174): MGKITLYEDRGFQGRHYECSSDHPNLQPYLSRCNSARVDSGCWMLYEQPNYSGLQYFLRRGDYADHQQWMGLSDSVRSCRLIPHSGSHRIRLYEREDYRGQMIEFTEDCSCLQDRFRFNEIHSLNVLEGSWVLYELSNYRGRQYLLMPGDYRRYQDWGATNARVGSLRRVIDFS
Test: Dynamic light scattering of γD-crystallin protein modified with CA(PEG)n
Format: biochemical
Excerpt: The γD- and γS-crystallin DNA sequences are in pQe1 plasmids that were provided by the King Labs at Massachusetts Institute of Technology (Cambridge, Mass.). γ-crystallin protein sequences contain a 6×N-terminal histidine tag (his tag) for purification purposes. The plasmids were transformed into a cloning competent cell line to create additional plasmid DNA. Plasmids were subsequently transformed into an expression competent cell line for protein synthesis (TAM 1 E. coli cells (Active Motif. Carlsbad, Calif.)).
γ-crystallin plasmid DNA was chemically transformed into M15pRep E. coli cells for protein synthesis. 1 L cultures were grown for protein purification. γ-crystallin protein was purified by Ni affinity chromatography. The N-terminal His tag contained on the γ-crystallin proteins preferentially binds to the Ni column. The bound protein can be eluted with an imidazole gradient which competitively binds to the Ni, releasing the purified protein. The procedure for purification is briefly (as before): protein is loaded on column, and washed first with 20 mM (0% B), then 35 mM (10% B), then 60 mM (20% B) imidazole. Protein is then eluted at 150 mM (57% B) imidazole. Purity was confirmed by SDS PAGE gel electrophoresis and fast protein liquid chromatography (FPLC).
Chemical Modification Protocol: • 1) A batch of purified protein was buffer exchanged into PBS pH=6.8 using a HiTrap™ desalting column. • (2) Concentration (A280) was measured prior to the addition of CA(PEG)n. • (3) 100 mg of CA(PEG)n was added to a 3-5 ml batch of the above protein. • (4) The mixture was placed on a shaker at 4° C. at 250 RPM overnight.
First a solution of unmodified γD-crystallin protein at a concentration of 0.1 mg/mL was studied by DLS. The measured correlation function g2-1 is plotted against the delay time (lag time) is given for the scattering angle of 30° in FIG. 2. The CONTIN analysis of the weight of various relaxation times is given in FIG. 3 for scattering angles ranging from 30° to 60°. It is clear that there are two populations in the solution, one corresponding to aggregates and the other corresponding to unaggregated protein.

[1] = 0.9 mg/mL of protein and 33 mg/ml of CA(PEG)n
[2] = 0.4 mg/mL of protein and 15 mg/ml of CA(PEG)2
[3] = 0.3 mg/mL of protein and 11 mg/ml of CA(PEG)3

| aggregate population of γD-crystallin by dynamic light scattering [1] | size of the unaggregated protein by dynamic light scattering [1] [nm] | Compound | also measured |
| --- | --- | --- | --- |
| absent | 2 | NCCOCCC(=O)O [CA(PEG)1] | – |
| – | – | NCCOCCOCCC(=O)O [CA(PEG)2] | aggregate population of γD-crystallin by dynamic light scattering [2]: absent; size of the unaggregated protein by dynamic light scattering [2]: 2 nm |
| – | – | NCCOCCOCCOCCC(=O)O [CA(PEG)3] | aggregate population of γD-crystallin by dynamic light scattering [3]: absent; size of the unaggregated protein by dynamic light scattering [3]: 2 nm |
| absent | 2 | NCCOCCOCCOCCOCCC(=O)O [CA(PEG)4] | – |

Reference: patent US10736863B2, “Methods of inhibiting cataracts and presbyopia” (UNIVERSITY OF MASSACHUSETTS, priority 2015, dated 2020)
